Source: patent US9266902B2, “Labelling reagents having a pyridine nucleus bearing a diazomethyl function, process for synthesis of such reagents and processes for detection of biological molecules” (priority 2008, dated 2016)

What was measured:
[1] = tested on: RNA amplicon (NASBA), 16S RNA of Mycobacterium tuberculosis; assay: Labelling of RNA amplicon without interim purification, detection by hybridisation on DNA chip; details: label 2 mM, 3 mM HCl, no purification
Experimental: In a 1 mL tube, the following are mixed: • 5 μL of 8 mM label solution (96/4 DMSO/Methanol).
The nucleic acids thus labelled are not purified, but are hybridised directly.
The labelled nucleic acids are transferred without purification into 480 μL of hybridisation buffer. The samples are hybridised on the DNA chips in the same way as for the previous example.

[2] = tested on: RNA amplicon (NASBA), 16S RNA of Mycobacterium tuberculosis; details: label 2.5 mM, hybridisation at 45° C. up to 24 hrs
Experimental: The solution is mixed by vortex then incubated for 10 minutes at 65° C.
The labelled nucleic acids were purified on a QiaQuick (PCR purification kit, Qiagen) column using the purification protocol recommended by the manufacturer. The elution volume is 100 μL.
After purification, the labelled nucleic acids are transferred into 400 of hybridisation buffer. The samples are hybridised on the DNA chips designed for the analysis of the “GenBank” M20940 sequence of the 16S RNA of Mycobacterium tuberculosis. […] The hybridisation stages were performed by injecting. 80 μL of the hybridisation mixture into the chip then maintaining this in a hybridisation oven at 45° C. for 0.5 hour, 2 hours, 6.5 hours or 24 hours.
300 μL of pure water; 300 μL of 100 mM Tris buffer pH 7/1 M NaCl/0.05% Tween 20/0.005% antifoamant; 6 μL of BSA (50 mg/mL); 6 μL of SA-PE (300 μg/mL).
The reading of the fluorescence emitted at the surface of the DNA chip after labelling and hybridisation and the generation of data in terms of signal intensity and percentage homology are performed with the reading systems and software supplied by Affymetrix. The reading system supplies signal and background noise intensities expressed in rfu (“relative fluorescence unit”). The percentage homology is given relative to a reference sequence which in this case is the sequence of Mycobacterium tuberculosis.

[3] = Stability in the dry form at +4° C. after lyophilisation (HPLC purity over time); details: 250 mM in 10 mM Tris HCl pH 7.5 and 10% trehalose, lyophilised one night
[4] = Stability in a liquid medium at ambient temperature (HPLC purity over time); assay type: physicochemical; details: 125 mM in 96/4 DMSO/methanol, ambient temperature (22° C.), at 10 days

Substance | background noise compared to BBP [1] | percentage homology [1] | specific signals (specific hybridisation) compared to BBP [1] | stability of labelled amplicons in the course of hybridisation [2] | stability to lyophilisation [3] | purity of the initial compound [4] [%]
Pyridine Diazo Biotin [PyDB] | reduced background noise | higher | improved | perfectly stable | perfectly stable | –
[Bio-EG3]2-PDAM [BBP, reference compound] | – | relatively low | – | – | – | < 10
